Measurements as given in patent US20230093099A1, “COMPOUNDS AND METHODS OF TREATING CANCERS” (CULLGEN (SHANGHAI), INC., priority 2019, published 2023).

System: RS4;11 cells
Experiment: Cell viability assay (CellTiter-Glo) in RS4;11 cells
Format: cell-based
Settings: Homo sapiens, 72 h; RS4;11 cells; cell viability, 3 days, CellTiter-Glo; read-out: IC50
Method in brief: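 RS4;11 cells seeded at 5000 per well, exposed for 3 days to 8- or 12-point 3-fold serial dilutions. Viability read by CellTiter-Glo luminescence; IC50 fitted by nonlinear least-squares regression.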

SMILES	IC50 [µM]
O=C1CCC(N2C(=O)c3cccc(NCC(=O)N4CCC(n5cc(-c6cnc7cccc(-c8cc(F)c(CN9CCOCC9)c(F)c8)c7n6)cn5)CC4)c3C2=O)C(=O)N1 (stereo not drawn) [JA-002, 4-[[2-[4-[4-[8-[3,5-Difluoro-4-(morpholinomethyl)phenyl]quinoxalin-2-yl]pyrazol-1-yl]-1-piperidyl]-2-oxo-ethyl]amino]-2-(2,6-dioxo-3-piperidyl)isoindoline-1,3-dione]	5.44
Cc1ncsc1-c1ccc(CNC(=O)[C@@H]2C[C@@H](O)CN2C(=O)[C@@H](NC(=O)CCOCCOCCOCCNC(=O)CN2CCN(c3ccc(Nc4nc5cccc(-c6ccc(S(C)(=O)=O)cc6)n5n4)cc3)CC2)C(C)(C)C)cc1 [JA-137, (2S,4R)-1-((S)-17-(tert-Butyl)-1-(4-(4-((5-(4-(methylsulfonyl)phenyl)-[1,2,4]triazolo[1,5-a]pyridin-2-yl)amino)phenyl)piperazin-1-yl)-2,15-dioxo-6,9,12-trioxa-3,16-diazaoctadecan-18-oyl)-4-hydroxy-N-(4-(4-methylthiazol-5-yl)benzyl)pyrrolidine-2-carboxamide]	> 10
Cc1ncsc1-c1ccc(CNC(=O)[C@@H]2C[C@@H](O)CN2C(=O)[C@@H](NC(=O)COCCOCCOCCNC(=O)CN2CCN(c3ccc(Nc4nc5cccc(-c6ccc(S(C)(=O)=O)cc6)n5n4)cc3)CC2)C(C)(C)C)cc1 [JA-131, (2S,4R)-1-((S)-2-(tert-Butyl)-17-(4-(4-((5-(4-(methylsulfonyl)phenyl)-[1,2,4]triazolo[1,5-a]pyridin-2-yl)amino)phenyl)piperazin-1-yl)-4,16-dioxo-6,9,12-trioxa-3,15-diazaheptadecanoyl)-4-hydroxy-N-(4-(4-methylthiazol-5-yl)benzyl)pyrrolidine-2-carboxamide]	> 10
Cc1cnc(Nc2ccc(N3CCN(CC(=O)NCCOCCOCCOCCOCCNc4ccc5c(c4)C(=O)N(C4CCC(=O)NC4=O)C5=O)CC3)cc2)nc1Nc1cccc(S(=O)(=O)NC(C)(C)C)c1 (stereo not drawn) [JA-240, 2-(4-(4-((4-((3-(N-(tert-butyl)sulfamoyl)phenyl)amino)-5-methylpyrimidin-2-yl)amino)phenyl)piperazin-1-yl)-N-(14-((2-(2,6-dioxopiperidin-3-yl)-1,3-dioxoisoindolin-5-yl)amino)-3,6,9,12-tetraoxatetradecyl)acetamide]	0.638
Cc1ncsc1-c1ccc(CNC(=O)[C@@H]2C[C@@H](O)CN2C(=O)[C@@H](NC(=O)COCCOCCOCC(=O)N2CCC(n3cc(-c4cnc5cccc(-c6cc(F)c(CN7CCOCC7)c(F)c6)c5n4)cn3)CC2)C(C)(C)C)cc1 [JA-053, (2S,4R)-1-[(2S)-2-[[2-[2-[2-[2-[4-[4-[8-[3,5-Difluoro-4-(morpholinomethyl)phenyl]quinoxalin-2-yl]pyrazol-1-yl]-1-piperidyl]-2-oxo-ethoxy]ethoxy]ethoxy]acetyl]amino]-3,3-dimethyl-butanoyl]-4-hydroxy-N-[[4-(4-methylthiazol-5-yl)phenyl]methyl]pyrrolidine-2-carboxamide]	> 10
O=C1CCC(N2C(=O)c3cccc(NCCCCCCC(=O)N4CCC(n5cc(-c6cnc7cccc(-c8cc(F)c(CN9CCOCC9)c(F)c8)c7n6)cn5)CC4)c3C2=O)C(=O)N1 (stereo not drawn) [JA-040, 4-[[7-[4-[4-[8-[3,5-Difluoro-4-(morpholinomethyl)phenyl]quinoxalin-2-yl]pyrazol-1-yl]-1-piperidyl]-7-oxo-heptyl]amino]-2-(2,6-dioxo-3-piperidyl)isoindoline-1,3-dione]	> 10
O=C(CN1CCC(n2cc(-c3cnc4cccc(-c5cc(F)c(CN6CCOCC6)c(F)c5)c4n3)cn2)CC1)NCCOCCOCCNc1ccc2c(c1)C(=O)N(C1CCC(=O)NC1=O)C2=O (stereo not drawn) [JA-170, 2-(4-(4-(8-(3,5-Difluoro-4-(morpholinomethyl)phenyl)quinoxalin-2-yl)-1H-pyrazol-1-yl)piperidin-1-yl)-N-(2-(2-(2-((2-(2,6-dioxopiperidin-3-yl)-1,3-dioxoisoindolin-5-yl)amino)ethoxy)ethoxy)ethyl)acetamide]	> 10
Cc1cnc(Nc2ccc(N3CCN(CC(=O)NCCCCCCCCC(=O)N[C@H](C(=O)N4C[C@H](O)C[C@H]4C(=O)NCc4ccc(-c5scnc5C)cc4)C(C)(C)C)CC3)cc2)nc1Nc1cccc(S(=O)(=O)NC(C)(C)C)c1 [JA-104, (2S,4R)-1-((S)-2-(9-(2-(4-(4-((4-((3-(N-(tert-Butyl)sulfamoyl)phenyl)amino)-5-methylpyrimidin-2-yl)amino)phenyl)piperazin-1-yl)acetamido)nonanamido)-3,3-dimethylbutanoyl)-4-hydroxy-N-(4-(4-methylthiazol-5-yl)benzyl)pyrrolidine-2-carboxamide]	> 10
CS(=O)(=O)c1ccc(-c2cccc3nc(Nc4ccc(N5CCN(CCCCCCOc6ccc7c(c6)C(=O)N(C6CCC(=O)NC6=O)C7=O)CC5)cc4)nn23)cc1 (stereo not drawn) [JA-256, 2-(2,6-Dioxopiperidin-3-yl)-5-((6-(4-(4-((5-(4-(methylsulfonyl)phenyl)-[1,2,4]triazolo[1,5-a]pyridin-2-yl)amino)phenyl)piperazin-1-yl)hexyl)oxy)isoindoline-1,3-dione]	1.9
CS(=O)(=O)c1ccc(-c2cccc3nc(Nc4ccc(N5CCN(C(=O)CCOCCNc6cccc7c6C(=O)N(C6CCC(=O)NC6=O)C7=O)CC5)cc4)nn23)cc1 (stereo not drawn) [JA-079, 2-(2,6-Dioxo-piperidin-3-yl)-4-{2-[3-(4-{4-[5-(4-methanesulfonyl-phenyl)-[1,2,4]triazolo[1,5-a]pyridin-2-ylamino]-phenyl}-piperazin-1-yl)-3-oxo-propoxy]-ethylamino}-isoindole-1,3-dione]	0.479
O=C(CN1CCC(n2cc(-c3cnc4cccc(-c5cc(F)c(CN6CCOCC6)c(F)c5)c4n3)cn2)CC1)NCCCCCNc1ccc2c(c1)C(=O)N(C1CCC(=O)NC1=O)C2=O (stereo not drawn) [JA-177, 2-(4-(4-(8-(3,5-Difluoro-4-(morpholinomethyl)phenyl)quinoxalin-2-yl)-1H-pyrazol-1-yl)piperidin-1-yl)-N-(5-((2-(2,6-dioxopiperidin-3-yl)-1,3-dioxoisoindolin-5-yl)amino)pentyl)acetamide]	0.89
Cc1cnc(Nc2ccc(N3CCN(C(=O)CCCCCCCCCC(=O)N[C@H](C(=O)N4C[C@H](O)C[C@H]4C(=O)NCc4ccc(-c5scnc5C)cc4)C(C)(C)C)CC3)cc2)nc1Nc1cccc(S(=O)(=O)NC(C)(C)C)c1 [JA-029, (2S,4R)-1-((S)-2-(11-(4-(4-((4-((3-(N-(tert-Butyl)sulfamoyl)phenyl)amino)-5-methylpyrimidin-2-yl)amino)phenyl)piperazin-1-yl)-11-oxoundecanamido)-3,3-dimethylbutanoyl)-4-hydroxy-N-(4-(4-methylthiazol-5-yl)benzyl)pyrrolidine-2-carboxamide]	> 10
Cc1cnc(Nc2ccc(N3CCN(C(=O)CCOCCOCCNc4cccc5c4C(=O)N(C4CCC(=O)NC4=O)C5=O)CC3)cc2)nc1Nc1cccc(S(=O)(=O)NC(C)(C)C)c1 (stereo not drawn) [JA-018, N-(tert-Butyl)-3-((2-((4-(4-(3-(2-(2-((2-(2,6-dioxopiperidin-3-yl)-1,3-dioxoisoindolin-4-yl)amino)ethoxy)ethoxy)propanoyl)piperazin-1-yl)phenyl)amino)-5-methylpyrimidin-4-yl)amino)benzenesulfonamide]	> 10
O=C(CN1CCC(n2cc(-c3cnc4cccc(-c5cc(F)c(CN6CCOCC6)c(F)c5)c4n3)cn2)CC1)NCCCNc1cccc2c1C(=O)N(C1CCC(=O)NC1=O)C2=O (stereo not drawn) [JA-154, 2-(4-(4-(8-(3,5-Difluoro-4-(morpholinomethyl)phenyl)quinoxalin-2-yl)-1H-pyrazol-1-yl)piperidin-1-yl)-N-(3-((2-(2,6-dioxopiperidin-3-yl)-1,3-dioxoisoindolin-4-yl)amino)propyl)acetamide]	1.41
Cc1ncsc1-c1ccc(CNC(=O)[C@@H]2C[C@@H](O)CN2C(=O)[C@@H](NC(=O)CCCCCCCCNC(=O)CN2CCN(c3ccc(Nc4nc5cccc(-c6ccc(S(C)(=O)=O)cc6)n5n4)cc3)CC2)C(C)(C)C)cc1 [JA-121, (2S,4R)-1-((S)-3,3-Dimethyl-2-(9-(2-(4-(4-((5-(4-(methylsulfonyl)phenyl)-[1,2,4]triazolo[1,5-a]pyridin-2-yl)amino)phenyl)piperazin-1-yl)acetamido)nonanamido)butanoyl)-4-hydroxy-N-(4-(4-methylthiazol-5-yl)benzyl)pyrrolidine-2-carboxamide]	> 10
Cc1cnc(Nc2ccc(N3CCN(C(=O)CCCCCCC(=O)N[C@H](C(=O)N4C[C@H](O)C[C@H]4C(=O)NCc4ccc(-c5scnc5C)cc4)C(C)(C)C)CC3)cc2)nc1Nc1cccc(S(=O)(=O)NC(C)(C)C)c1 [JA-026, (2S,4R)-1-((S)-2-(8-(4-(4-((4-((3-(N-(tert-Butyl)sulfamoyl)phenyl)amino)-5-methylpyrimidin-2-yl)amino)phenyl)piperazin-1-yl)-8-oxooctanamido)-3,3-dimethylbutanoyl)-4-hydroxy-N-(4-(4-methylthiazol-5-yl)benzyl)pyrrolidine-2-carboxamide]	> 10
Cc1ncsc1-c1ccc(CNC(=O)[C@@H]2C[C@@H](O)CN2C(=O)[C@@H](NC(=O)CCCCCCCC(=O)N2CCN(c3ccc(Nc4nc5cccc(-c6ccc(S(C)(=O)=O)cc6)n5n4)cc3)CC2)C(C)(C)C)cc1 [JA-065, (2S,4R)-1-((S)-3,3-Dimethyl-2-(9-(4-(4-((5-(4-(methylsulfonyl)phenyl)-[1,2,4]triazolo[1,5-a]pyridin-2-yl)amino)phenyl)piperazin-1-yl)-9-oxononanamido)butanoyl)-4-hydroxy-N-(4-(4-methylthiazol-5-yl)benzyl)pyrrolidine-2-carboxamide]	0.872
Cc1cnc(Nc2ccc(N3CCN(CC(=O)NCCCCCCCCCC(=O)N[C@H](C(=O)N4C[C@H](O)C[C@H]4C(=O)NCc4ccc(-c5scnc5C)cc4)C(C)(C)C)CC3)cc2)nc1Nc1cccc(S(=O)(=O)NC(C)(C)C)c1 [JA-105, (2S,4R)-1-((S)-2-(10-(2-(4-(4-((4-((3-(N-(tert-Butyl)sulfamoyl)phenyl)amino)-5-methylpyrimidin-2-yl)amino)phenyl)piperazin-1-yl)acetamido)decanamido)-3,3-dimethylbutanoyl)-4-hydroxy-N-(4-(4-methylthiazol-5-yl)benzyl)pyrrolidine-2-carboxamide]	> 10
